Experimental data taken from the supplement of paper PMC10307832.

Assays:
Test in all cases: relative viability (nuclei count vs DMSO), 5 days (fraction); higher = more cells survive
A-427 = tested on: A-427
How it was run: (§1)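 Lung cancer cell lines in 1536-well plates got either a single drug or a fixed anchor-drug dose together with five library-drug doses (not always all listed) in √10 steps, by pin tool, on the day after seeding. Nuclei were counted after 5 days, and relative viability is the treated-to-vehicle ratio of nuclei counts. Values are medians of duplicate plates.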

COR-L 105 = tested on: COR-L 105
How it was run: as §1

EPLC-272H = tested on: EPLC-272H
How it was run: as §1

HCC-366 = tested on: HCC-366
How it was run: as §1

HCC-78 = tested on: HCC-78
How it was run: as §1

HOP-62 = tested on: HOP-62
How it was run: as §1

LC-2-ad = tested on: LC-2-ad
How it was run: as §1

LCLC-97TM1 = tested on: LCLC-97TM1
How it was run: as §1

LU99A = tested on: LU99A
How it was run: as §1

LXF-289 = tested on: LXF-289
How it was run: as §1

NCI-H1755 = tested on: NCI-H1755
How it was run: as §1

NCI-H1792 = tested on: NCI-H1792
How it was run: as §1

NCI-H1793 = tested on: NCI-H1793
How it was run: as §1

NCI-H1915 = tested on: NCI-H1915
How it was run: as §1

NCI-H1944 = tested on: NCI-H1944
How it was run: as §1

NCI-H1975 = tested on: NCI-H1975
How it was run: as §1

NCI-H2085 = tested on: NCI-H2085
How it was run: as §1

NCI-H2170 = tested on: NCI-H2170
How it was run: as §1

NCI-H2342 = tested on: NCI-H2342
How it was run: as §1

NCI-H358 = tested on: NCI-H358
How it was run: as §1

NCI-H460 = tested on: NCI-H460
How it was run: as §1

SK-LU-1 = tested on: SK-LU-1
How it was run: as §1

SW 900 = tested on: SW 900
How it was run: as §1

UMC-11 = tested on: UMC-11
How it was run: as §1

With `COc1cc(N2CCC(C(N)=O)CC2)ccc1Nc1nc(N)c(Cl)c(Nc2ccccc2S(=O)(=O)C(C)C)n1` [HG-5-88-01] + CC(=O)Nc1cccc(-n2c(=O)n(C3CC3)c(=O)c3c(Nc4ccc(I)cc4F)n(C)c(=O)c(C)c32)c1 [Trametinib] (partner 0.02 µM) the relative viability (A-427; first compound 0.04 µM) was 0.8, the relative viability (A-427; first compound 0.1265 µM) was 0.754 and the relative viability (A-427; first compound 0.4 µM) was 0.749. The relative viability (A-427; first compound 1.265 µM) was 0.662, the relative viability (A-427; first compound 4 µM) was 0.487 and the relative viability (COR-L 105; first compound 0.04 µM) was 0.471. The relative viability (COR-L 105; first compound 0.1265 µM) was 0.423, the relative viability (COR-L 105; first compound 0.4 µM) was 0.402 and the relative viability (COR-L 105; first compound 1.265 µM) was 0.319. The relative viability (COR-L 105; first compound 4 µM) was 0.421, the relative viability (EPLC-272H; first compound 0.04 µM) was 0.316 and the relative viability (EPLC-272H; first compound 0.1265 µM) was 0.308. It also gave a relative viability (EPLC-272H; first compound 0.4 µM) of 0.279, a relative viability (EPLC-272H; first compound 1.265 µM) of 0.205 and a relative viability (EPLC-272H; first compound 4 µM) of 0.0984. For the same molecule, the relative viability (HCC-366; first compound 0.04 µM) was 0.429, the relative viability (HCC-366; first compound 0.1265 µM) was 0.366 and the relative viability (HCC-366; first compound 0.4 µM) was 0.365. It also gave a relative viability (HCC-366; first compound 1.265 µM) of 0.361, a relative viability (HCC-366; first compound 4 µM) of 0.243 and a relative viability (HCC-78; first compound 0.04 µM) of 0.737. It also gave a relative viability (HCC-78; first compound 0.1265 µM) of 0.455, a relative viability (HCC-78; first compound 0.4 µM) of 0.492 and a relative viability (HCC-78; first compound 1.265 µM) of 0.289. For the same molecule, the relative viability (HCC-78; first compound 4 µM) was 0.348, the relative viability (HOP-62; first compound 0.04 µM) was 0.391 and the relative viability (HOP-62; first compound 0.1265 µM) was 0.411. The relative viability (HOP-62; first compound 0.4 µM) was 0.345, the relative viability (HOP-62; first compound 1.265 µM) was 0.317 and the relative viability (HOP-62; first compound 4 µM) was 0.383. For the same molecule, the relative viability (LC-2-ad; first compound 0.04 µM) was 0.934, the relative viability (LC-2-ad; first compound 0.1265 µM) was 0.86 and the relative viability (LC-2-ad; first compound 0.4 µM) was 0.865. It also gave a relative viability (LC-2-ad; first compound 1.265 µM) of 0.896, a relative viability (LC-2-ad; first compound 4 µM) of 0.993 and a relative viability (LCLC-97TM1; first compound 0.04 µM) of 0.154. For the same molecule, the relative viability (LCLC-97TM1; first compound 0.1265 µM) was 0.211, the relative viability (LCLC-97TM1; first compound 0.4 µM) was 0.188 and the relative viability (LCLC-97TM1; first compound 1.265 µM) was 0.147. For the same molecule, the relative viability (LCLC-97TM1; first compound 4 µM) was 0.136, the relative viability (LU99A; first compound 0.04 µM) was 0.584 and the relative viability (LU99A; first compound 0.1265 µM) was 0.565. The relative viability (LU99A; first compound 0.4 µM) was 0.543, the relative viability (LU99A; first compound 1.265 µM) was 0.429 and the relative viability (LU99A; first compound 4 µM) was 0.493. The relative viability (LXF-289; first compound 0.04 µM) was 0.672, the relative viability (LXF-289; first compound 0.1265 µM) was 0.692 and the relative viability (LXF-289; first compound 0.4 µM) was 0.511. The relative viability (LXF-289; first compound 1.265 µM) was 0.677, the relative viability (LXF-289; first compound 4 µM) was 0.672 and the relative viability (NCI-H1755; first compound 0.04 µM) was 0.765. For the same molecule, the relative viability (NCI-H1755; first compound 0.1265 µM) was 0.72, the relative viability (NCI-H1755; first compound 0.4 µM) was 0.773 and the relative viability (NCI-H1755; first compound 1.265 µM) was 0.78. For the same molecule, the relative viability (NCI-H1755; first compound 4 µM) was 0.792, the relative viability (NCI-H1792; first compound 0.04 µM) was 0.444 and the relative viability (NCI-H1792; first compound 0.1265 µM) was 0.535. It also gave a relative viability (NCI-H1792; first compound 0.4 µM) of 0.401, a relative viability (NCI-H1792; first compound 1.265 µM) of 0.432 and a relative viability (NCI-H1792; first compound 4 µM) of 0.576. For the same molecule, the relative viability (NCI-H1793; first compound 0.04 µM) was 0.433, the relative viability (NCI-H1793; first compound 0.1265 µM) was 0.381 and the relative viability (NCI-H1793; first compound 0.4 µM) was 0.462. For the same molecule, the relative viability (NCI-H1793; first compound 1.265 µM) was 0.432, the relative viability (NCI-H1793; first compound 4 µM) was 0.578 and the relative viability (NCI-H1915; first compound 0.04 µM) was 0.327. It also gave a relative viability (NCI-H1915; first compound 0.1265 µM) of 0.338, a relative viability (NCI-H1915; first compound 0.4 µM) of 0.353 and a relative viability (NCI-H1915; first compound 1.265 µM) of 0.313. The relative viability (NCI-H1915; first compound 4 µM) was 0.317, the relative viability (NCI-H1944; first compound 0.04 µM) was 0.386 and the relative viability (NCI-H1944; first compound 0.1265 µM) was 0.48. The relative viability (NCI-H1944; first compound 0.4 µM) was 0.396, the relative viability (NCI-H1944; first compound 1.265 µM) was 0.398 and the relative viability (NCI-H1944; first compound 4 µM) was 0.398. For the same molecule, the relative viability (NCI-H1975; first compound 0.04 µM) was 0.4, the relative viability (NCI-H1975; first compound 0.1265 µM) was 0.446 and the relative viability (NCI-H1975; first compound 0.4 µM) was 0.331. The relative viability (NCI-H1975; first compound 1.265 µM) was 0.329, the relative viability (NCI-H1975; first compound 4 µM) was 0.247 and the relative viability (NCI-H2085; first compound 0.04 µM) was 0.613. For the same molecule, the relative viability (NCI-H2085; first compound 0.1265 µM) was 0.553, the relative viability (NCI-H2085; first compound 0.4 µM) was 0.502 and the relative viability (NCI-H2085; first compound 1.265 µM) was 0.478. It also gave a relative viability (NCI-H2085; first compound 4 µM) of 0.432, a relative viability (NCI-H2170; first compound 0.04 µM) of 0.961 and a relative viability (NCI-H2170; first compound 0.1265 µM) of 0.964. For the same molecule, the relative viability (NCI-H2170; first compound 0.4 µM) was 0.894, the relative viability (NCI-H2170; first compound 1.265 µM) was 0.672 and the relative viability (NCI-H2170; first compound 4 µM) was 1.03. The relative viability (NCI-H2342; first compound 0.04 µM) was 0.846, the relative viability (NCI-H2342; first compound 0.1265 µM) was 0.939 and the relative viability (NCI-H2342; first compound 0.4 µM) was 0.865. The relative viability (NCI-H2342; first compound 4 µM) was 0.969, the relative viability (NCI-H358; first compound 0.04 µM) was 0.123 and the relative viability (NCI-H358; first compound 0.1265 µM) was 0.124. The relative viability (NCI-H358; first compound 0.4 µM) was 0.131, the relative viability (NCI-H358; first compound 1.265 µM) was 0.106 and the relative viability (NCI-H358; first compound 4 µM) was 0.105. It also gave a relative viability (NCI-H460; first compound 0.04 µM) of 0.131, a relative viability (NCI-H460; first compound 0.1265 µM) of 0.124 and a relative viability (NCI-H460; first compound 0.4 µM) of 0.13. It also gave a relative viability (NCI-H460; first compound 1.265 µM) of 0.0779, a relative viability (NCI-H460; first compound 4 µM) of 0.123 and a relative viability (SK-LU-1; first compound 0.04 µM) of 0.394. It also gave a relative viability (SK-LU-1; first compound 0.1265 µM) of 0.388, a relative viability (SK-LU-1; first compound 0.4 µM) of 0.451 and a relative viability (SK-LU-1; first compound 1.265 µM) of 0.474. For the same molecule, the relative viability (SK-LU-1; first compound 4 µM) was 0.363, the relative viability (SW 900; first compound 0.04 µM) was 0.941 and the relative viability (SW 900; first compound 0.1265 µM) was 0.943. The relative viability (SW 900; first compound 0.4 µM) was 0.875, the relative viability (SW 900; first compound 1.265 µM) was 0.627 and the relative viability (SW 900; first compound 4 µM) was 0.685. It also gave a relative viability (UMC-11; first compound 0.04 µM) of 0.532, a relative viability (UMC-11; first compound 0.1265 µM) of 0.861 and a relative viability (UMC-11; first compound 0.4 µM) of 0.727. For the same molecule, the relative viability (UMC-11; first compound 1.265 µM) was 0.707 and the relative viability (UMC-11; first compound 4 µM) was 0.531.
